Tests used:
Assay type in all cases: in vivo
[1] = tested on: Cabbage Looper (Trichoplusia ni); experiment: Bioassay on Cabbage Looper (CL), 128-well diet tray assay; conditions: Cabbage Looper, Table ABC, read-out: CL rating
Summary of the method: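 Second-instar larvae, one to five per well, placed on artificial diet surface-treated with 50 μg/cm^2 compound in acetone-water, eight wells per compound. Held 5-7 days at 25° C, 14:10 light-dark; percent mortality per well averaged across wells.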

[2] = tested on: Yellow Fever Mosquito (Aedes aegypti); experiment: Bioassay on Yellow Fever Mosquito (YFM) larvae, 96-well plate; conditions: Table ABC
Description: Example C: Bioassays on Yellow Fever Mosquito (Aedes Aegypti, AEDSAE) (“YFM”)
Certain molecules disclosed in this document were tested against YFM using procedures described in the following paragraph. In the reporting of the results, the “GPA & YFM Rating Table” was used (See Table Section).
Master plates containing 400 μg of a molecule dissolved in 100 μL of dimethyl sulfoxide (DMSO) (equivalent to a 4000 ppm solution) are used. A master plate of assembled molecules contains 15 μL per well. To this plate, 135 μL of a 90:10 water:acetone mixture is added to each well. A robot (Biomek® NXP Laboratory Automation Workstation) is programmed to dispense 15 μL aspirations from the master plate into an empty 96-well shallow plate (“daughter” plate). There are 6 reps (“daughter” plates) created per master. The created daughter plates are then immediately infested with YFM larvae.
The day before plates are to be treated, mosquito eggs are placed in Millipore water containing liver powder to begin hatching (4 g. into 400 mL). After the daughter plates are created using the robot, they are infested with 220 μL of the liver powder/larval mosquito mixture (about 1 day-old larvae). After plates are infested with mosquito larvae, a non-evaporative lid is used to cover the plate to reduce drying. Plates are held at room temperature for 3 days prior to grading. After 3 days, each well is observed and scored based on mortality. The results are indicated in the table entitled “Table ABC: Biological Results” (See Table Section).

[3] = tested on: Beet Armyworm (Spodoptera exigua); experiment: Bioassay on Beet Armyworm (BAW), 128-well diet tray assay; conditions: Beet Armyworm, Table ABC, read-out: BAW rating
Summary of the method: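 Second-instar larvae (one to five per well) placed on artificial diet surface-treated with 50 μg/cm^2 test molecule in 90:10 acetone-water, dried, eight wells per molecule. Held at 25° C, 14:10 light-dark, five to seven days; percent mortality recorded per well and averaged across the eight wells.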

SMILES	pest or weed control at 50 µg/cm2 [1] [%]	YFM rating [2]	pest or weed control at 50 µg/cm2 [3] [%]
O=C(NC1(C(=O)NCC(F)(F)F)CC1)c1ccc(/C(F)=C/C(c2cc(Br)c(Cl)c(Br)c2)C(F)(F)F)cc1C(F)(F)F (stereo not drawn) [F45, (Z)-4-(3-(3,5-Dibromo-4-chlorophenyl)-1,4,4,4-tetrafluorobut-1-en-1-yl)-N-(1-((2,2,2-trifluoroethyl)carbamoyl)cyclopropyl)-2-(trifluoromethyl)benzamide]	50 to 100	A (80-100)	50 to 100
O=C(CNC(=O)c1ccc(/C(F)=C/C(c2cc(Br)c(Cl)c(Br)c2)C(F)(F)F)cc1C(F)(F)F)NCC(F)(F)F (stereo not drawn) [F46, (Z)-4-(3-(3,5-Dibromo-4-chlorophenyl)-1,4,4,4-tetrafluorobut-1-en-1-yl)-N-(2-oxo-2-((2,2,2-trifluoroethyl)amino)ethyl)-2-(trifluoromethyl)benzamide]	50 to 100	A (80-100)	50 to 100
C=Cc1c(Cl)cc(C(/C=C(\F)c2ccc(C(=O)N[C@H](C)C(=O)NCC(F)(F)F)c(C(F)(F)F)c2)C(F)(F)F)cc1Cl (stereo partly drawn) [F52, 4-((Z)-3-(3,5-Dichloro-4-vinylphenyl)-1,4,4,4-tetrafluorobut-1-en-1-yl)-N—((R)-1-oxo-1-((2,2,2-trifluoroethyl)amino)propan-2-yl)-2-(trifluoromethyl)benzamide]	50 to 100	A (80-100)	50 to 100
CCN1OC[C@@H](NC(=O)c2ccc(/C(F)=C/C(c3cc(Cl)c(Cl)c(Cl)c3)C(F)(F)F)cc2C(F)(F)F)C1=O (stereo partly drawn) [F53, N—((R)-2-Ethyl-3-oxoisoxazolidin-4-yl)-4-((Z)-1,4,4,4-tetrafluoro-3-(3,4,5-trichlorophenyl)but-1-en-1-yl)-2-(trifluoromethyl)benzamide]	50 to 100	A (80-100)	50 to 100
C[C@@H](NC(=O)c1ccc(/C(F)=C/C(c2cc(Cl)c(Br)c(Cl)c2)C(F)(F)F)cc1C(F)(F)F)C(=O)NCC(F)(F)F (stereo partly drawn) [F59, 4-((Z)-3-(4-Bromo-3,5-dichlorophenyl)-1,4,4,4-tetrafluorobut-1-en-1-yl)-N—((R)-1-oxo-1-((2,2,2-trifluoroethyl)amino)propan-2-yl)-2-(trifluoromethyl)benzamide]	50 to 100	A (80-100)	50 to 100
O=C(NC1(C(=O)NCC(F)(F)F)CC1)c1ccc(/C(F)=C/C(c2cc(Cl)c(Br)c(Cl)c2)C(F)(F)F)cc1C(F)(F)F (stereo not drawn) [F60, (Z)-4-(3-(4-Bromo-3,5-dichlorophenyl)-1,4,4,4-tetrafluorobut-1-en-1-yl)-N-(1-((2,2,2-trifluoroethyl)carbamoyl)cyclopropyl)-2-(trifluoromethyl)benzamide]	50 to 100	A (80-100)	50 to 100
C=Cc1c(Cl)cc(C(/C=C(\F)c2ccc(C(=O)NCC(=O)NCC(F)(F)F)c(C(F)(F)F)c2)C(F)(F)F)cc1Cl (stereo not drawn) [F61, (Z)-4-(3-(3,5-Dichloro-4-vinylphenyl)-1,4,4,4-tetrafluorobut-1-en-1-yl)-N-(2-oxo-2-((2,2,2-trifluoroethyl)amino)ethyl)-2-(trifluoromethyl)benzamide]	50 to 100	A (80-100)	50 to 100
CN(CC(=O)NCC(F)(F)F)C(=O)c1ccc(/C(F)=C/C(c2cc(Cl)c(Cl)c(Cl)c2)C(F)(F)F)cc1C(F)(F)F (stereo not drawn) [F68, (Z)—N-Methyl-N-(2-oxo-2-((2,2,2-trifluoroethyl)amino)ethyl)-4-(1,4,4,4-tetrafluoro-3-(3,4,5-trichlorophenyl)but-1-en-1-yl)-2-(trifluoromethyl)benzamide]	50 to 100	A (80-100)	50 to 100
Cc1cc(C(/C=C(\F)c2ccc(C(=O)N[C@H](C)C(=O)NCC(F)(F)F)c(C(F)(F)F)c2)C(F)(F)F)cc(C)c1Cl (stereo partly drawn) [F69, 4-((Z)-3-(4-Chloro-3,5-dimethylphenyl)-1,4,4,4-tetrafluorobut-1-en-1-yl)-N—((R)-1-oxo-1-((2,2,2-trifluoroethyl)amino)propan-2-yl)-2-(trifluoromethyl)benzamide]	50 to 100	A (80-100)	50 to 100
Cc1cc(C(/C=C(\F)c2ccc(C(=O)NC3(C(=O)NCC(F)(F)F)CC3)c(C(F)(F)F)c2)C(F)(F)F)cc(C)c1Cl (stereo not drawn) [F70, (Z)-4-(3-(4-Chloro-3,5-dimethylphenyl)-1,4,4,4-tetrafluorobut-1-en-1-yl)-N-(1-((2,2,2-trifluoroethyl)carbamoyl)cyclopropyl)-2-(trifluoromethyl)benzamide]	50 to 100	A (80-100)	50 to 100
Cc1cc(C(/C=C(\F)c2ccc(C(=O)NCC(=O)NCC(F)(F)F)c(C(F)(F)F)c2)C(F)(F)F)cc(C)c1Cl (stereo not drawn) [F71, (Z)-4-(3-(4-Chloro-3,5-dimethylphenyl)-1,4,4,4-tetrafluorobut-1-en-1-yl)-N-(2-oxo-2-((2,2,2-trifluoroethyl)amino)ethyl)-2-(trifluoromethyl)benzamide]	50 to 100	B (More than 0-Less than 80)	50 to 100
C[C@@H](NC(=O)c1ccc(/C(F)=C/C(c2cc(Cl)cc(Cl)c2)C(F)(F)F)cc1C(F)(F)F)C(=O)N(C)CC(F)(F)F (stereo partly drawn) [F72, 4-((Z)-3-(3,5-Dichlorophenyl)-1,4,4,4-tetrafluorobut-1-en-1-yl)-N—((R)-1-(methyl(2,2,2-trifluoroethyl)amino)-1-oxopropan-2-yl)-2-(trifluoromethyl)benzamide]	50 to 100	A (80-100)	50 to 100
C[C@@H](NC(=O)c1ccc(/C(F)=C/C(c2ccc(Cl)c(Cl)c2)C(F)(F)F)cc1C(F)(F)F)C(=O)N(C)CC(F)(F)F (stereo partly drawn) [F73, 4-((Z)-3-(3,4-Dichlorophenyl)-1,4,4,4-tetrafluorobut-1-en-1-yl)-N—((R)-1-(methyl(2,2,2-trifluoroethyl)amino)-1-oxopropan-2-yl)-2-(trifluoromethyl)benzamide]	50 to 100	A (80-100)	50 to 100
CN(CC(F)(F)F)C(=O)CNC(=O)c1ccc(/C(F)=C/C(c2ccc(Cl)c(Cl)c2)C(F)(F)F)cc1C(F)(F)F (stereo not drawn) [F74, (Z)-4-(3-(3,4-Dichlorophenyl)-1,4,4,4-tetrafluorobut-1-en-1-yl)-N-(2-(methyl(2,2,2-trifluoroethyl)amino)-2-oxoethyl)-2-(trifluoromethyl)benzamide]	50 to 100	A (80-100)	50 to 100
CN(CC(F)(F)F)C(=O)CNC(=O)c1ccc(/C(F)=C/C(c2cc(Cl)c(Br)c(Cl)c2)C(F)(F)F)cc1C(F)(F)F (stereo not drawn) [F75, (Z)-4-(3-(4-Bromo-3,5-dichlorophenyl)-1,4,4,4-tetrafluorobut-1-en-1-yl)-N-(2-(methyl(2,2,2-trifluoroethyl)amino)-2-oxoethyl)-2-(trifluoromethyl)benzamide]	50 to 100	A (80-100)	50 to 100
C[C@@H](NC(=O)c1ccc(/C(F)=C/C(c2cc(Cl)c(Br)c(Cl)c2)C(F)(F)F)cc1C(F)(F)F)C(=O)N(C)CC(F)(F)F (stereo partly drawn) [F76, 4-((Z)-3-(4-Bromo-3,5-dichlorophenyl)-1,4,4,4-tetrafluorobut-1-en-1-yl)-N—((R)-1-(methyl(2,2,2-trifluoroethyl)amino)-1-oxopropan-2-yl)-2-(trifluoromethyl)benzamide]	50 to 100	A (80-100)	50 to 100
CN(CC(F)(F)F)C(=O)CNC(=O)c1ccc(/C(F)=C/C(c2cc(Br)c(Cl)c(Br)c2)C(F)(F)F)cc1C(F)(F)F (stereo not drawn) [F77, (Z)-4-(3-(3,5-Dibromo-4-chlorophenyl)-1,4,4,4-tetrafluorobut-1-en-1-yl)-N-(2-(methyl(2,2,2-trifluoroethyl)amino)-2-oxoethyl)-2-(trifluoromethyl)benzamide]	50 to 100	A (80-100)	50 to 100
C[C@@H](NC(=O)c1ccc(/C(F)=C/C(c2cc(Br)c(Cl)c(Br)c2)C(F)(F)F)cc1C(F)(F)F)C(=O)N(C)CC(F)(F)F (stereo partly drawn) [F78, 4-((Z)-3-(3,5-Dibromo-4-chlorophenyl)-1,4,4,4-tetrafluorobut-1-en-1-yl)-N—((R)-1-(methyl(2,2,2-trifluoroethyl)amino)-1-oxopropan-2-yl)-2-(trifluoromethyl)benzamide]	50 to 100	A (80-100)	50 to 100
